Assay results from patent publication US12129246B1, “Hydroquinazoline derivatives for the treatment of a disease or disorder” (Novartis AG, priority 2023, dated 2024).
Like-named read-outs stand apart in the source and are kept apart here.

What was measured:
monkey NPR1 = monkey NPR1 (Macaca fascicularis, UniProt A0A7N9DBT9); assay: Cellular cGMP production assay, monkey NPR1 expressing CHO-K1 cells (CisBio HTRF); format: cell-based; conditions: for Monkey NPR1 Amax (% of ANP): maximum cGMP production as percentage of the maximum cGMP produced with ANP
Outline: (§1)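 Step 1: add buffer (PBS, 0.1% BSA, 1 mM IBMX) and compounds, 3-fold series from 30 μM top. Step 2: incubate 30 min, 37 °C. Step 3: lyse; HTRF reagents 1 h at RT.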

human NPR1 = molecular target: T1, human NPR1 (Homo sapiens, UniProt P16066); assay: Cellular cGMP production assay, human NPR1 expressing CHO-K1 cells (CisBio HTRF); format: cell-based; conditions: for AC50: cGMP production, 30 min at 37° C., 12-point dose-response from 30 μM; for Human NPR1 Amax (% of ANP): maximum cGMP production as percentage of the maximum cGMP produced with ANP
T1 construct: host or cells: CHO-K1
T1 sequence (P16066 33-1061): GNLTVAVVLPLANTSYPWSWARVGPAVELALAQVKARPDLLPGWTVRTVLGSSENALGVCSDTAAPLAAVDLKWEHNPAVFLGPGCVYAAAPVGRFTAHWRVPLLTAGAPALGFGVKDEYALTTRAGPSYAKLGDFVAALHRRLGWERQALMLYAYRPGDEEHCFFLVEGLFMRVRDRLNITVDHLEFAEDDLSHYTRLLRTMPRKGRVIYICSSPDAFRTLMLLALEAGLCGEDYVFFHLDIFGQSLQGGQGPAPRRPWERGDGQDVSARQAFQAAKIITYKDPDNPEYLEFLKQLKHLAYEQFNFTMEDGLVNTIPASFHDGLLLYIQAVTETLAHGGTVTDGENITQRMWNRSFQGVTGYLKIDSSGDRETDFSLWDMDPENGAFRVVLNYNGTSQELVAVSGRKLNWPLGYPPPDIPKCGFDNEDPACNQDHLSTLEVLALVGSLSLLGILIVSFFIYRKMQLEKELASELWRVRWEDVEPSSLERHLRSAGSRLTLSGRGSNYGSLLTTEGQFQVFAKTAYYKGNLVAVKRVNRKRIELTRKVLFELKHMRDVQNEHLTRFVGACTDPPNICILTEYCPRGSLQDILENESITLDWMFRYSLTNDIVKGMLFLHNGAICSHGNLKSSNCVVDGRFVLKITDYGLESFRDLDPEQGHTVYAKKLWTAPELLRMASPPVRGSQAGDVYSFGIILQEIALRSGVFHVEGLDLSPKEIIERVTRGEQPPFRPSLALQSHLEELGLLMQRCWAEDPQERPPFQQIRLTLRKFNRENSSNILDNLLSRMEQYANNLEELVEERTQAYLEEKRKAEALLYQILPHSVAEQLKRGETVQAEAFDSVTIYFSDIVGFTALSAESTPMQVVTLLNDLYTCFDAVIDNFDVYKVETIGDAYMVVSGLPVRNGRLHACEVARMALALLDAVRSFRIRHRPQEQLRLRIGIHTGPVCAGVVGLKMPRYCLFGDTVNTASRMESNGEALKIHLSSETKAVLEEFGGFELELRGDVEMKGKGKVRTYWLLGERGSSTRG
Outline: as §1

[1] = cGMP production, monkey NPR1 CHO-K1 cells, 30 min at 37° C., 12-point dose-response from 30 μM, read-out: Monkey NPR1 AC50

Sequence of monkey NPR1 (A0A7N9DBT9 entry or part of it): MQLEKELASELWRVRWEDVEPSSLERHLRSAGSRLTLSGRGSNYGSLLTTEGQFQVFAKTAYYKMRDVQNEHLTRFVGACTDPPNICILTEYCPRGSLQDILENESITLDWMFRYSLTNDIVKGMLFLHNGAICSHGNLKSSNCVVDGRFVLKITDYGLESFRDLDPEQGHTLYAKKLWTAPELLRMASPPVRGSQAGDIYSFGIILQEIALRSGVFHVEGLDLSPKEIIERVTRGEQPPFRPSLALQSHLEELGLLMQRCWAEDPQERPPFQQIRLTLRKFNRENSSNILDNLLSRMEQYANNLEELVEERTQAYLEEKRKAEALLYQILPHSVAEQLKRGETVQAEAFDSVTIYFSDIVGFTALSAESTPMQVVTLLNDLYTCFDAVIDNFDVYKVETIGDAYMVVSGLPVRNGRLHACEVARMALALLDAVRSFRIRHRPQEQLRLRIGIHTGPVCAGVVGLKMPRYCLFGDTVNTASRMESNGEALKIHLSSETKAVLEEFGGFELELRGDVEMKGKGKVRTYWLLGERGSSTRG

Row | Compound | AC50 (monkey NPR1; [1]) [nM] | Monkey NPR1 Amax (% of ANP) (monkey NPR1; monkey NPR1 CHO-K1 cells) | AC50 (human NPR1) [nM] | Human NPR1 Amax (% of ANP) (human NPR1) | AC50 (monkey NPR1) [nM]
1 | CC[C@@H](Nc1nc2c(c(N[C@@H](CN3CCC(F)CC3)c3cnn(C)c3)n1)C[C@H](c1ccccc1)CC2)[C@H]1CC[C@H](C(=O)O)CC1 [Compound 142, (1R,4r)-4-((R)-1-(((R)-4-(((R)-2-(4-fluoropiperidin-1-yl)-1-(1-methyl-1H-pyrazol-4-yl)ethyl)amino)-6-phenyl-5,6,7,8-tetrahydroquinazolin-2-yl)amino)propyl)cyclohexane-1-carboxylic acid] | 313 | 95.614 % of ANP | 901 | 107.815 % of ANP | 
2 | CC[C@@H](N(C)c1nc2c(c(N[C@@H](CN3C4CCCC3CC4)c3cnn(CC)c3)n1)C[C@H](c1cccc(F)c1)CC2)C12CC(C(=O)O)(C1)C2 [Compound 42, 3-((1R)-1-(((6R)-4-(((1R)-2-(8-azabicyclo[3.2.1]octan-8-yl)-1-(1-ethyl-1H-pyrazol-4-yl)ethyl)amino)-6-(3-fluorophenyl)-5,6,7,8-tetrahydroquinazolin-2-yl)(methyl)amino)propyl)bicyclo[1.1.1]pentane-1-carboxylic acid] |  | 101.138 % of ANP | 169 | 92.080 % of ANP | 146
3 | CC[C@@H](N(C)c1nc2c(c(N[C@@H](CN3C4CCCC3CC4)c3cnc(C)s3)n1)C[C@H](c1cccc(F)c1)CC2)C12CC(C(=O)O)(C1)C2 [Compound 77, 3-((1R)-1-(((6R)-4-(((1S)-2-(8-azabicyclo[3.2.1]octan-8-yl)-1-(2-methylthiazol-5-yl)ethyl)amino)-6-(3-fluorophenyl)-5,6,7,8-tetrahydroquinazolin-2-yl)(methyl)amino)propyl)bicyclo[1.1.1]pentane-1-carboxylic acid] |  | 96.715 % of ANP | 249 | 95.666 % of ANP | 134
4 | CC[C@H]([C@H]1CC[C@H](C(=O)O)CC1)N(C)c1nc2c(c(N[C@@H](CN3C4CCCC3COC4)c3cnn(C)c3)n1)C[C@H](c1ccccc1)CC2 [Compound 169, (1R,4r)-4-((R)-1-(((R)-4-(((R)-2-((1R,5S)-3-oxa-9-azabicyclo[3.3.1]nonan-9-yl)-1-(1-methyl-1H-pyrazol-4-yl)ethyl)amino)-6-phenyl-5,6,7,8-tetrahydroquinazolin-2-yl)(methyl)amino)propyl)cyclohexane-1-carboxylic acid] |  | 96.574 % of ANP | 2670 | 67.375 % of ANP | 1920
5 | CC[C@H]([C@H]1CC[C@H](C(=O)O)CC1)N(C)c1nc2c(c(N[C@@H](CN3C4CCCC3CC4)c3ccnn3C)n1)C[C@H](c1cccc(F)c1)CC2 [Compound 164, (1R,4r)-4-((1R)-1-(((6R)-4-(((1S)-2-(8-azabicyclo[3.2.1]octan-8-yl)-1-(1-methyl-1H-pyrazol-5-yl)ethyl)amino)-6-(3-fluorophenyl)-5,6,7,8-tetrahydroquinazolin-2-yl)(methyl)amino)propyl)cyclohexane-1-carboxylic acid] |  | 92.193 % of ANP | 1780 | 94.088 % of ANP | 946
6 | CC[C@@H](N(C)c1nc2c(c(N[C@@H](CN3CCC[C@H](C)C3)c3cc(C)nn3C)n1)C[C@H](c1ccccc1)CC2)C12CC(C(=O)O)(C1)C2 [Compound 140, 3-(1-(((R)-4-(((S)-1-(1,3-dimethyl-1H-pyrazol-5-yl)-2-((S)-3-methylpiperidin-1-yl)ethyl)amino)-6-phenyl-5,6,7,8-tetrahydroquinazolin-2-yl)(methyl)amino)-1l3-propyl)bicyclo[1.1.1]pentane-1-carboxylic acid] | 499 | 96.883 % of ANP | 885 | 89.152 % of ANP | 
7 | CC[C@H]([C@H]1CC[C@H](C(=O)O)CC1)N(C)c1nc2c(c(N[C@@H](CN3CCC[C@H](C)C3)c3cnn(C)c3)n1)C[C@H](c1ccccc1)CC2 [Compound 40, (1R,4r)-4-((R)-1-(methyl((R)-4-(((R)-1-(1-methyl-1H-pyrazol-4-yl)-2-((S)-3-methylpiperidin-1-yl)ethyl)amino)-6-phenyl-5,6,7,8-tetrahydroquinazolin-2-yl)amino)propyl)cyclohexane-1-carboxylic acid] | 127 | 105.150 % of ANP | 166 | 102.476 % of ANP | 
8 | CC[C@H]([C@H]1CC[C@H](C(=O)O)CC1)N(C)c1nc2c(c(N[C@@H](CN3CCC[C@H](C)C3)c3cnn(C)c3)n1)C[C@](C)(c1ccccc1)CC2 [Compound 7, (1R,4r)-4-((R)-1-(methyl((R)-6-methyl-4-(((R)-1-(1-methyl-1H-pyrazol-4-yl)-2-((S)-3-methylpiperidin-1-yl)ethyl)amino)-6-phenyl-5,6,7,8-tetrahydroquinazolin-2-yl)amino)propyl)cyclohexane-1-carboxylic acid] | 50 | 102.341 % of ANP | 80 | 97.105 % of ANP | 
9 | CC[C@H]([C@H]1CC[C@H](C(=O)O)CC1)N(C)c1nc2c(c(N[C@@H](CN3CCCC[C@H]3CO)c3cnn(CC)c3)n1)C[C@H](c1cccc(F)c1)CC2 [Compound 135, (1R,4r)-4-((R)-1-(((R)-4-(((R)-1-(1-ethyl-1H-pyrazol-4-yl)-2-((S)-2-(hydroxymethyl)piperidin-1-yl)ethyl)amino)-6-(3-fluorophenyl)-5,6,7,8-tetrahydroquinazolin-2-yl)(methyl)amino)propyl)cyclohexane-1-carboxylic acid] | 604 | 99.242 % of ANP | 805 | 94.757 % of ANP | 
10 | CC[C@H]([C@H]1CC[C@H](C(=O)O)CC1)N(C)c1nc2c(c(N[C@@H](CN3CCC[C@H](OC)C3)c3cnn(C)c3)n1)C[C@H](c1ccccc1)CC2 [Compound 134, (1R,4r)-4-((R)-1-(((R)-4-(((R)-2-((S)-3-methoxypiperidin-1-yl)-1-(1-methyl-1H-pyrazol-4-yl)ethyl)amino)-6-phenyl-5,6,7,8-tetrahydroquinazolin-2-yl)(methyl)amino)propyl)cyclohexane-1-carboxylic acid] | 684 | 96.371 % of ANP | 792 | 101.936 % of ANP | 
11 | CC[C@@H](Nc1nc2c(c(N[C@@H](CN3C4CCCC3CCC4)c3ccccc3)n1)C[C@H](c1ccccc1)CC2)[C@H]1CC[C@H](C(=O)O)CC1 [Compound 108, (1R,4r)-4-((R)-1-(((R)-4-(((R)-2-((1S,5S)-9-azabicyclo[3.3.1]nonan-9-yl)-1-phenylethyl)amino)-6-phenyl-5,6,7,8-tetrahydroquinazolin-2-yl)amino)propyl)cyclohexane-1-carboxylic acid] |  | 99.706 % of ANP | 410 | 93.072 % of ANP | 248
12 | CC[C@H]([C@H]1CC[C@H](C(=O)O)CC1)N(C)c1nc2c(c(N[C@@H](CN3C4CCCC3CC4)c3cnn(C)c3C)n1)C[C@H](c1cccc(F)c1)CC2 [Compound 16, (1R,4r)-4-((1R)-1-(((6R)-4-(((1R)-2-(8-azabicyclo[3.2.1]octan-8-yl)-1-(1,5-dimethyl-1H-pyrazol-4-yl)ethyl)amino)-6-(3-fluorophenyl)-5,6,7,8-tetrahydroquinazolin-2-yl)(methyl)amino)propyl)cyclohexane-1-carboxylic acid] |  | 98.785 % of ANP | 103 | 100.021 % of ANP | 47
